Measured values: article PMC12693701, “Glucosinolate-Derived Metabolites from Barbarea vulgaris (Brassicaceae): Evaluation of Antimicrobial, Antioxidant, and Anti-Inflammatory Potentials” (Molecules, 2025)

Experiments:
[1] = molecular target: T1, Type I-B soybean lipoxygenase (Glycine max, UniProt P08170); test: LOX inhibition assay; assay type: biochemical; conditions: 100 µM; mean ± SD; read-out: Percentage of LOX Inhibition
T1 sequence (P08170 1-839): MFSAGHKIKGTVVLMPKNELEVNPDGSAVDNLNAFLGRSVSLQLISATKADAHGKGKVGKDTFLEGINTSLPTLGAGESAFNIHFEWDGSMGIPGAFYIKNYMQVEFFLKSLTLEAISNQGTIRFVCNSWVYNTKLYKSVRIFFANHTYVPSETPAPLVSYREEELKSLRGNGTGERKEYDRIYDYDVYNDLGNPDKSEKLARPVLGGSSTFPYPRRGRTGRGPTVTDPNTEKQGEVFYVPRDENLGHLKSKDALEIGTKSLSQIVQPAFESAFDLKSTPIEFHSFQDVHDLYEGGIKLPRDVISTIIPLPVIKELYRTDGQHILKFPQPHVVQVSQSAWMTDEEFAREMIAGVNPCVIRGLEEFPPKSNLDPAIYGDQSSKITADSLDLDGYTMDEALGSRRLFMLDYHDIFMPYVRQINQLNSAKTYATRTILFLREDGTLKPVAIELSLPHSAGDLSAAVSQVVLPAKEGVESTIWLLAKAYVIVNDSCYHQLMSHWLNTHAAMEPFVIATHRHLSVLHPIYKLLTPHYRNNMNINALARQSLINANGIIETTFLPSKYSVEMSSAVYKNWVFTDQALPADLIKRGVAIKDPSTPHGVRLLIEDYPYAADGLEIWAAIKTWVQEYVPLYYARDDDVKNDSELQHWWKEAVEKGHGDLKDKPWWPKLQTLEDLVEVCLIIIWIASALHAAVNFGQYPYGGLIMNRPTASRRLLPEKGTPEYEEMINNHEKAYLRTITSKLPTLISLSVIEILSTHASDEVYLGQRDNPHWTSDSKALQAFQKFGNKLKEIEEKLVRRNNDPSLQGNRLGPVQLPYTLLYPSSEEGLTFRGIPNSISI
Procedure: Type I-B soybean lipoxygenase is a commonly used enzyme for studying the anti-inflammatory properties of various compounds [19]. The lipoxygenase (LOX) inhibition assay measures the enzyme’s ability to convert sodium linoleate to 13-hydroperoxylinoleic acid. The inhibition of the enzyme by the investigated compounds was determined by measuring the absorbance at 234 nm for each prepared sample. Specifically, the test compound, Tris buffer, an enzyme solution (5 × 10^3 units/mL in saline), and sodium linoleate (3 mM in Tris buffer, pH 9), were added to a UV cuvette, and the absorbance was recorded. […] All measurements were performed in triplicate.

[2] = DPPH radical scavenging assay; conditions: mean ± SD
Procedure: The DPPH assay was used to assess the ability of the tested compounds to scavenge reactive radical species. Stock solutions of the investigated compounds were prepared in DMSO and then diluted with methanol to a final volume of 1000 µL. An equal volume of a 50 µM DPPH solution in methanol was then added to the prepared mixture. The final concentrations of the test compounds were 25, 50, and 100 µM. After thorough mixing, the samples were incubated in the dark at room temperature for 20 to 60 min. Methanol was used as a blank, and absorbance was measured at 517 nm after incubation. All measurements were performed in triplicate.

K. pneumoniae = test: Inhibition of biofilm formation (crystal violet); assay type: cell-based, Klebsiella pneumoniae
Procedure: (§1) The procedure involved preparing 96-well microtiter plates (Sarstedt, Nümbrecht, Germany) by adding 100 μL of Mueller-Hinton nutrient broth to each well. A 10 μL aliquot of bacterial suspension (adjusted to 1.0 McFarland for Gram-positive bacteria and 0.5 McFarland for Gram-negative bacteria) was added to the wells. The plates were then incubated at 37 °C for 48 h to allow biofilm formation. After incubation, the wells were washed twice with 200 μL of sterile 0.85% saline to remove non-adherent and weakly adherent cells. Biofilms formed by the adherent bacteria were fixed with 100 μL of methanol until fully evaporated. The biofilms were then stained using 0.1% (w/v) crystal violet (Fluka Chemie AG, Buchs, Switzerland) and left at room temperature for 20 min. After staining, excess dye was washed off with deionized water, followed by 96% ethanol. Controls included wells containing only nutrient broth to check for sterility and nonspecific binding. Background absorbance from the sterile medium, fixative, and dye was subtracted from the OD readings of the test samples. All experiments were performed in triplicate.
(§2) To assess the inhibition of biofilm formation, 96-well microtiter plates (Sarstedt, Nümbrecht, Germany) were prepared by dispensing 100 μL of Mueller-Hinton broth into each well. From stock solutions of tested compounds (at 10 mg/mL), 100 μL was added to the first row of the plate, followed by twofold serial dilutions (from 5 to 0.039 mg/mL) using a multichannel pipette (Eppendorf AG, Hamburg, Germany). Subsequently, 10 μL of fresh bacterial suspension (adjusted to 0.5 McFarland for Gram-negative and 1.0 McFarland for Gram-positive bacteria) was added to each well. The plates were incubated at 37 °C for 48 h. After incubation, the contents of the wells were carefully removed by tapping, and the remainder of the experiment was conducted following the procedure described above.
(§3) Controls consisted of wells containing only broth or broth with the tested compounds to assess sterility and nonspecific binding. Background absorbance was subtracted from test readings as described earlier. All experiments were performed in triplicate, and tetracycline (Sigma-Aldrich, St. Louis, MO, USA), dissolved in nutrient broth, was used as a reference compound.

P. mirabilis = test: Inhibition of biofilm formation (crystal violet); assay type: cell-based, Proteus mirabilis
Procedure: as §1, §2, §3

S. enterica = test: Inhibition of biofilm formation (crystal violet); assay type: cell-based, Salmonella enterica; conditions: biofilm coverage reduced by 90%
Procedure: as §1, §2, §3

S. aureus ATCC 25923 = test: Inhibition of biofilm formation (crystal violet); assay type: cell-based, Staphylococcus aureus
Procedure: as §1, §2, §3

B. subtilis ATCC 6633 = test: Inhibition of biofilm formation (crystal violet); assay type: cell-based, Bacillus subtilis
Procedure: as §1, §2, §3

[3] = biofilm coverage reduced by 50%
[4] = biofilm coverage reduced by 90%

SMILES | inhibition at 100 µM [1] [%] | DPPH Scavenging Ability ([2]; 25 µM, 20 min) [%] | DPPH Scavenging Ability ([2]; 25 µM, 60 min) [%] | DPPH Scavenging Ability ([2]; 50 µM, 20 min) [%] | DPPH Scavenging Ability ([2]; 50 µM, 60 min) [%] | DPPH Scavenging Ability ([2]; 100 µM, 20 min) [%] | DPPH Scavenging Ability ([2]; 100 µM, 60 min) [%] | BIC50 (K. pneumoniae; [3]) [µg/mL] | BIC90 (K. pneumoniae; [4]) [µg/mL] | BIC50 (P. mirabilis; [3]) [µg/mL] | BIC90 (P. mirabilis; [4]) [µg/mL] | BIC90 (S. enterica) [µg/mL] | BIC50 (S. aureus ATCC 25923; [3]) [µg/mL] | BIC90 (S. aureus ATCC 25923; [4]) [µg/mL] | BIC50 (B. subtilis ATCC 6633; [3]) | BIC90 (B. subtilis ATCC 6633; [4]) [µg/mL]
O=c1c(O)c(-c2ccc(O)c(O)c2)oc2cc(O)cc(O)c12 [Quercetin, reference compound] | 92 ± 0.9 | 95.3 ± 0.8 | 95.1 ± 0.9 | 96.8 ± 1.0 | 96.5 ± 0.9 | 95.1 ± 0.9 | 95.4 ± 0.8 | – | – | – | – | – | – | – | – | –
CN(C)[C@@H]1C(O)=C(C(N)=O)C(=O)[C@@]2(O)C(O)=C3C(=O)c4c(O)cccc4[C@@](C)(O)[C@H]3C[C@@H]12 [Tetracycline, reference compound] | – | – | – | – | – | – | – | 6 | 125 | 320 | >1000 | 180 | 250 | 300 | ˂15.6 µg/mL | 15.6
